Source: patent US8541415B2 (University of Pittsburgh—of the Commonwealth System of …, priority 2008, dated 2013)
Read-outs that look alike come from different tables or passages of the source.

Tests used:
[1] = tested on: HIV-1 strain NL4-3; assay: microbe, parasite or virus in culture; type: cell-based; conditions: for activity at 5 µM / IC50: Human immunodeficiency virus 1, NL43, U-87 MG; for activity at 5 µM: 96 h, read-out: HIV p24% Control @ day 4; for Suppression of HIV replication: p24 release 4 days later, leads from yeast screen; for Inhibition of pseudotyped NL43 HIV-1 replication: FIGS. 1-3; for Anti-HIV activity (words, structure-activity comment on Table 1): 5 μM, p24 day 4
Method: (§1) Lead compounds from the yeast screen were evaluated for activity in a Nef-dependent HIV replication assay. For these experiments, U87MG astroglioma cells engineered to express the HIV-1 co-receptors CD4 and CXCR4 were employed. Replication of HIV-1 NL4-3 is dependent upon an intact viral nef gene in these cells, making this system suitable to evaluate leads from the Nef-directed screen. U87MG cells were infected with HIV-1 in the presence of the top five compounds identified in the yeast screen, and HIV replication was monitored as p24 release into the culture supernatant 4 days later, as known in the art. As known in the art, “p24” refers to a constituent protein of the capsid of HIV-1.
(§2) The data of Table 1 are presented as percent p24 release relative to control in the absence of compound. […] Data are expressed as percent viable cells relative to untreated control culture.
It is understood that “strongest” and like terms in the context of inhibitors identified in a library screen refer to compounds that inhibit at the lowest concentrations. For these experiments, the U87MG astroglioma cell line was used as a model system. […] U87MG cells were infected with HIV-1 strain NL4-3 as well as an isogenic variant that fails to express Nef (ΔNef), over a wide range of viral titers and in the presence of each compound at 5 μM. Viral replication was assessed as HIV p24 antigen release into the culture supernatant 4 and/or 5 days later. Methods for the assay of p24 in culture supernatant are well known in the art and include, for example without limitation, immunochemical methods.

[2] = tested on: U87MG cells; conditions: human
Method: as §1, §2

[3] = tested on: HIV-ΔNef mutant (NL4-3 that fails to express Nef); assay: Replication of Nef-defective HIV in U87MG cells (p24 ELISA); conditions: p24 ELISA day 5, FIG. 8, for Ma even at 10 μM
Method: HIV p24 release was determined by ELISA at day 5 following the addition of the DFP-analogs. […] U87MG cells were infected a viral density of 500 pg/ml. p24 as determined by ELISA.
To address whether Nef is required for the anti-retroviral effects of these compounds, HIV replication assays in U87MG cells infected with either wild-type or Nef-defective HIV were carried out.
Viral replication was monitored by measuring p24 protein levels in the culture supernatant 4 days after infection by standard ELISA-based techniques. Test compounds were added to the culture 30 min prior to infection with HIV, and DMSO was used as the carrier solvent at a final concentration of 0.1%.

[4] = biological target: T1, Nef:Hck-YEEI complex (Homo sapiens, UniProt P08631); conditions: Z'-Lyte dose-response, FIG. 7
Target sequence in this assay (P08631 with tags, fused parts or gaps isoform P08631-3, other chains not shown): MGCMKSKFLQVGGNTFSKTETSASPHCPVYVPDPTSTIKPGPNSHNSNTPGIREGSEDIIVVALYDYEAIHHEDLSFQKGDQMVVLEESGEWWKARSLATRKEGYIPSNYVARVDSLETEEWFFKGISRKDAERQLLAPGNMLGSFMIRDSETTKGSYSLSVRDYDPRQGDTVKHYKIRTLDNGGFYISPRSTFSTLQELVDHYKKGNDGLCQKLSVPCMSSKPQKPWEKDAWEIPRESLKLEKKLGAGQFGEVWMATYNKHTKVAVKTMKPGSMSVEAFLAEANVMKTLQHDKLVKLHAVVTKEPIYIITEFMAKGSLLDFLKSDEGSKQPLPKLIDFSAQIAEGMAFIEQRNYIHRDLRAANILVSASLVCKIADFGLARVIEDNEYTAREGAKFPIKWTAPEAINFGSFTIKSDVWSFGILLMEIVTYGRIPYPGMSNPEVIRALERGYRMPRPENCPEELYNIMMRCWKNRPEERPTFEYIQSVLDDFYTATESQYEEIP

[5] = biological target: T1, Nef:Hck-YEEI complex; assay: biochemical
Target sequence in this assay (P08631 with tags, fused parts or gaps isoform P08631-3, other chains not shown): as above

[6] = tested on: Nef:Hck-YEEI complex; conditions: Z'-Lyte dose-response, FIG. 7A
[7] = biological target: T1, Nef:Hck-YEEI complex
Target sequence in this assay (P03407 2-210): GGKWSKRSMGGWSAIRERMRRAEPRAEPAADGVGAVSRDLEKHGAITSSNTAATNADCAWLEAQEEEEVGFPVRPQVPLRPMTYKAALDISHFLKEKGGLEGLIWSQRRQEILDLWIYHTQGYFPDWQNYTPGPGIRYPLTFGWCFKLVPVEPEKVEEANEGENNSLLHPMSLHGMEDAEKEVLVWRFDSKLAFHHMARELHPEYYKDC
Target sequence in this assay (P08631 other isoform, or with tags, fused parts or gaps): as the sequence (P08631 with tags, fused parts or gaps isoform P08631-3, other chains not shown) above
Method: For the liquid growth assay, yeast strain W303a was co-transformed with the required plasmids, seeded at an initial density of OD600nm=0.05 units in SD/-U-T medium, and incubated for 21 h at 30° C.
Aliquots of yeast cultures used for the spot assay were grown in SD/-U-T medium plus galactose for 18 h. […] Aliquots of each lysate (0.2 OD600nm units) were separated via SDS-PAGE, transferred to PVDF membranes, and probed for protein phosphotyrosine content with a combination of the anti-phosphotyrosine antibodies PY99 (Santa Cruz Biotechnology, Santa Cruz, Calif.) and PY20 (Transduction Laboratories, Lexington, Ky.).
Yeast strain W303a was co-transformed with Hck-YEEI (SE0 ID NO: 4) and Nef expression plasmids and grown to an OD600nm of 0.05. Cells (100 μL) were plated in duplicate wells of a 96-well plate in the presence of each compound from the Chempiv kinase-biased inhibitor library (Chempiv, Inc., San Diego, Calif.). All compounds were initially screened at 10 μM with 0.5% DMSO as carrier solvent. […] Cultures were incubated at 30° C., and the OD60nm was measured at 0 and 22 h.

SMILES	activity at 5 µM [1] [%]	Cytotoxicity, Viable cell % control ([2]; 96 h, 30 μM) [% control]	other results
OCCNc1ncnc2oc(-c3ccccc3)c(-c3ccccc3)c12 [IIIL]	93	94	–
c1ccc(-c2oc3ncnc(NCCCc4ccco4)c3c2-c2ccccc2)cc1 [IIIq, N-(3-(furan-2-yl)propyl) 5,6-diphenylfuro[2,3-d]pyrimidin-4-amine]	–	–	Effect on replication of HIV-ΔNef mutant [3]: Neither IIIm nor IIIq shows inhibition; Inhibition of Nef:Hck complex [4]: enhanced both potency and efficacy for the Nef:Hck complex vs. Hck alone; IC50 ([1]; 120 h, read-out: IC50, wild-type HIV replication, U87MG cells, wild-type NL4-3, p24 ELISA day 5, FIG. 8): ≤ 1 µM
O=S(=O)(Nc1nc2ccccc2nc1Nc1ccc2c(c1)OCCO2)c1ccc(Cl)cc1 [Compound Ia, 4-Chloro-N-[3-(2,3-dihydro-benzo[1,4]dioxin-6-ylamino)-quinoxalin-2-yl]-benzenesulfonamide]	–	–	melting point: 257 to 258 °C; IC50 ([1]; read-out: IC50, HIV replication, U87MG cells expressing CD4 and CXCR4, HIV-1 NL4-3, concentration-response): ~0.13 µM; Suppression of HIV replication ([1]; U87MG cells): significantly suppressed HIV replication; Concentration up to which not cytotoxic [2]: > 50 µM
O=S(=O)(Nc1nc2ccccc2nc1Nc1cccc2ccccc12)c1ccc(Cl)cc1 [Compound Q22, 4-Chloro-N-[3-(naphthalen-1-ylamino)-quinoxalin-2-yl]-benzenesulfonamide]	–	–	melting point: 262 to 265 °C; Selectivity wild-type vs Nef-deficient NL43 HIV-1 ([1]; U87MG cells infected with wild-type or Nef-deficient virus, FIG. 3): selective and more potent at inhibiting the replication of wild-type virus; Inhibition of pseudotyped NL43 HIV-1 replication ([1]; U87MG cells): potent inhibitors of viral infection
COc1ccc2nc(NS(=O)(=O)c3ccccc3)c(Nc3cc(OC)c(OC)c(OC)c3)nc2c1 [Compound Q10]	62	95	–
O=S(=O)(Nc1nc2ccccc2nc1Nc1cccc(O)c1)c1ccccc1 [Compound Q19]	114	92	–
c1ccc(-c2oc3ncnc(NCCN4CCOCC4)c3c2-c2ccccc2)cc1 [IIIe]	39	89	–
CCOc1ccc(S(=O)(=O)Nc2nc3ccccc3nc2Nc2ccccc2)cc1 [Compound Q16]	91	100	–
Nc1ncnc2oc(-c3ccco3)c(-c3ccco3)c12 [IIIc]	20	–	–
COc1ccc(OC)c(Nc2nc3ccccc3nc2NS(=O)(=O)c2ccc(Cl)cc2)c1 [Compound Q2]	10	100	–
O=S(=O)(Nc1nc2ccccc2nc1Nc1ccc(O)cc1)c1ccccc1 [Compound Q11]	68	88	–
O=S(=O)(Nc1nc2ccccc2nc1Nc1cccc2ccccc12)c1ccccc1 [Compound Q4]	26	100	–
Cc1ccc(S(=O)(=O)Nc2nc3ccccc3nc2Nc2ccc3c(c2)OCCO3)cc1 [Compound Q15]	88	96	–
O=C(Nc1ncnc2oc(-c3ccccc3)c(-c3ccccc3)c12)c1ccco1 [IIIh]	59	89	–
Nc1ccc(S(=O)(=O)Nc2nc3ccccc3nc2Nc2ccc3ccccc3c2)cc1 [Compound Q6]	40	92	–
COc1ccccc1Nc1nc2ccccc2nc1NS(=O)(=O)c1ccccc1 [Compound Q14]	87	93	–
COc1ccc(Nc2nc3ccccc3nc2NS(=O)(=O)c2ccc(Cl)cc2)c(OC)c1 [Compound Q5]	26	96	–
COc1ccc(Nc2nc3ccccc3nc2NS(=O)(=O)c2ccccc2)cc1OC [Compound Q17]	100	97	Anti-HIV activity (words, structure-activity comment on Table 1) ([1]; U87MG cells): one of the least active

SMILES	activity at 5 µM [1] [%]	Cytotoxicity, Viable cell % control ([2]; 96 h, 30 μM) [% control]	other results
O=S(=O)(Nc1nc2ccccc2nc1Nc1ccc2ccccc2c1)c1ccc(Cl)cc1 [Compound Q21, 4-Chloro-N-[3-(naphthalen-2-ylamino)-quinoxalin-2-yl]-benzenesulfonamide]	–	–	melting point: 222 to 224 °C; Inhibition of pseudotyped NL43 HIV-1 replication ([1]; U87MG cells): potent inhibitors of viral infection
O=S(=O)(Nc1nc2ccccc2nc1Nc1ccc2ccccc2c1)c1ccccc1 [Compound Q1]	4	98	–
COc1ccc(-c2oc3ncnc(N)c3c2-c2ccccc2)cc1 [IIIj]	73	97	–
COc1ccc(Nc2nc3ccccc3nc2NS(=O)(=O)c2ccc(Cl)cc2)cc1OC [Compound Q3]	13	100	Anti-HIV activity (words, structure-activity comment on Table 1) ([1]; U87MG cells): one of the most active compounds
O=C(O)CNc1ncnc2oc(-c3ccccc3)c(-c3ccccc3)c12 [IIIg]	58	100	–
COc1ccc(Nc2nc3ccccc3nc2NS(=O)(=O)c2ccccc2)cc1 [Compound Q20]	119	89	–
OCCCNc1ncnc2oc(-c3ccccc3)c(-c3ccccc3)c12 [IIIa, 3-(5,6-diphenylfuro[2,3-d]pyrimidin-4-ylamino)propan-1-ol]	20	95	Effect on replication of HIV-ΔNef mutant [3]: no effect; IC50 ([5]; IC50, Nef-induced Hck activation (Nef:Hck complex kinase activity), in vitro, peptide substrate, triplicate, FIG. 5B legend): 4 µM; IC50 ([5]; IC50, kinase activity of Nef:Hck-YEEI complex, dose response study, FIG. 5B, text b88): ~3 µM; Increase in potency in the presence of Nef (Nef:Hck complex vs Hck alone) [6]: 2 fold; IC50 ([1]; 120 h, read-out: IC50, HIV-1 replication (viral p24 release), U87MG cells, HIV strain NL4-3, p24 ELISA 5 days later, FIG. 5C): 6 µM; HIV replication, p24 release ([1]; U87MG cells, HIV-1 NL4-3, compound at 5 μM, 4 and/or 5 days, FIG. 6): undetectable levels; IC50, wild-type HIV replication ([1]; U87MG cells, wild-type NL4-3, p24 ELISA day 5, FIG. 8): low μM range; Cytotoxicity against U87MG cells ([2]; 96 h, 30 μM): neither DFP-4AP nor any of the other diphenylfuropyrimidine analogs displayed significant cytotoxicity
c1ccc(-c2oc3ncnc(NCc4ccco4)c3c2-c2ccccc2)cc1 [IIIb]	8	109	–
CCOc1ccc(S(=O)(=O)Nc2nc3ccccc3nc2Nc2ccc(OC)cc2)cc1 [Compound Q18]	112	99	–
COc1ccc(Nc2nc3ccccc3nc2NS(=O)(=O)c2ccc(C)cc2)c(OC)c1 [Compound Q8]	55	90	–
O=S(=O)(Nc1nc2ccccc2nc1Nc1ccccc1)c1ccccc1 [Compound Q7]	42	97	–
Cc1ccc(-c2oc3ncnc(N)c3c2-c2ccc(C)cc2)cc1 [IIId]	29	90	–
CCOc1ccccc1Nc1nc2ccccc2nc1NS(=O)(=O)c1ccc(C)cc1 [Compound Q9]	60	100	–
c1ccc(-c2oc3ncnc(NCCCN4CCOCC4)c3c2-c2ccccc2)cc1 [IIIf]	47	99	–
Cc1nc2sc(-c3nc4ccccc4[nH]3)c(N)c2c(C)c1Cl [IIa]	–	–	Suppression of HIV replication ([1]; U87MG cells): significantly suppressed HIV replication; Concentration up to which not cytotoxic [2]: > 50 µM
CN1CCN(C2CCC(n3cc(-c4ccc(Oc5ccccc5)cc4)c4c(N)ncnc43)CC2)CC1 (stereo not drawn) [Compound A-419259]	–	–	Tyrosine phosphorylation of yeast proteins ([7]; inhibitor-treated yeast cultures, anti-phosphotyrosine immunoblot): decrease in tyrosine phosphorylation of yeast proteins to control levels; Reversal of growth arrest compared with Nef PxxP mutation ([7]; liquid yeast cultures, 5 μM): nearly as effective as mutation of the Nef PxxP motif; Reversal of growth suppression induced by Nef:Hck-YEEI ([7]; liquid yeast cultures, OD 600 nm, at both 1 μM and 5 μM vs untreated cultures): significantly reversed the growth suppression
COc1ccc(Nc2nc3ccccc3nc2NS(=O)(=O)c2ccc(C)cc2)cc1OC [Compound Q13]	82	91	–
